Values of other authors, collected in US7109216B2 (priority 2001, dated 2006).

Biological target: CB1 receptor (Homo sapiens, UniProt P21554)
Conditions: Meschler et al. 2000; cited from earlier work

Sequence of CB1 receptor (P21554 whole entry): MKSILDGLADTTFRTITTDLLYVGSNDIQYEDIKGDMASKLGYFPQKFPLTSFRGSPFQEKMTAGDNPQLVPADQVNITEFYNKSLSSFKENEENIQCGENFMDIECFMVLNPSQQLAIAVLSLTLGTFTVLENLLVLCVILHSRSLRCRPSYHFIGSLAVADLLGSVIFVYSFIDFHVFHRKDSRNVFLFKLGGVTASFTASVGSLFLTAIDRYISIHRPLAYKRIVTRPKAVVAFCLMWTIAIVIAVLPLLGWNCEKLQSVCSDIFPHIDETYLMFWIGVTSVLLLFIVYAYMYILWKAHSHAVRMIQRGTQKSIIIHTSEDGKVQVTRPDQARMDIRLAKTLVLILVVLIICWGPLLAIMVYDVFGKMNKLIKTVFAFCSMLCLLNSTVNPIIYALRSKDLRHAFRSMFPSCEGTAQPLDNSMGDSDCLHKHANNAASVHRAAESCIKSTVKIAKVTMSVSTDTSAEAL

COc1ccc(-c2c(C#N)c(C(=O)Nc3ccccc3)nn2-c2ccccc2Cl)cc1 [CP-272871]
CB1 receptor subtype selectivity compared with SR141716A: less CB1 receptor subtype-selective
potency compared with SR141716A: less potent
